Laboratory results reported in patent US6962945B2, “N-aryloxypropanolyl-N′-phenethyl-urea” (Council of Scientific and Industrial Research, priority 2004, dated 2005).
Entries after “also recorded” stand apart in the source; their conditions may differ.

Test system: adult male Sprague Dawley rats
Assay: appetite suppressant activity on scheduled fed rat model of appetite
Assay type: in vivo
Settings: 20 μmol/kg, by oral route; for decrease in food intake as compared to food intake in the control group: fat rich diet 3 h daily, 30 min prior to food; for change in gross behaviour: observed during the period of feeding
Method: The pharmacological evaluation of the test compounds of general formula 3 was carried out by the following protocol.
The appetite suppressant activity of test compounds was tested on scheduled fed rat model of appetite. The study was conducted in adult male Sprague Dawley rats, weighing 175-200 g on arrival). The animals were housed in transparent cages of Bayer Makrolon type 3118 measuring 425×266×180 with floor area 800 cm^2. In each cage one rat was kept. A special fat rich diet (Diet #12451, Research Diets, NJ, USA) was provided only for 3 h (11 am-2 pm) daily [no diet in rest of the period]. Water was provided for 24 h. Diet was weighed prior to and after observation period by an electronic [Digital display] balance. Food intake was recorded by calculating the difference between prior and after weight of diet. Rats were weighed weekly after feeding. Rats were provided 16 g of diet daily and within 12-14 days animals achieved base line food intake (12-14 g) with gain in body weight (230-250 g) indicating adaptation to scheduled feeding. Only those rats that adapted to schedule feeding were used in the study. Rat showing significant less food intake and weight gain as compared to others was excluded from the study.
Thereafter, tests compounds dissolved in 10% DMSO aqueous solution and given in dose of 20 μmol/kg, by oral route. The test compounds were administered 30 min prior to food. Each test compounds were given in 5 rats. Diet and water was weighed at hourly interval in control and compound treated rats. During the period of feeding the gross behavior of rat was also observed.
The significance of difference between the food intake of treated and control groups was determined by unpaired Student's test [Two tailed p value].

Q: Which “decrease in food intake as compared to food intake in the control group” value does the source give for `CC(C)CC(N(C)C)C1(c2ccc(Cl)cc2)CCC1` (centres unmarked) [Sibutramine, reference compound] here?
A: Its value is 38.57%.

Q: Which results are given for `O=C(NCCc1ccccc1)NCC(O)COc1ccc(C(F)(F)F)cc1` (centres unmarked) [compound 3a, N-[2-hydroxy-3-(4-trifluoromethylphenoxy)propyl]-N′-2-phenethyl-urea]?
A: activity compared with Sibutramine: comparable; also recorded: same activity as Sibutramine; change in water intake: did not cause any significant change; change in gross behaviour: did not cause any significant change; decrease in food intake as compared to food intake in the control group: 41.42%

Q: Which results are given for `COc1ccc(OCC(O)CNC(=O)NCCc2ccccc2)cc1` (centres unmarked) [compound 3j, N-[2-hydroxy-3-(4-methoxyphenoxy)propyl]-N′-2-phenethyl-urea]?
A: change in water intake: did not cause any significant change; change in gross behaviour: did not cause any significant change; decrease in food intake as compared to food intake in the control group: 31.82%

Q: What does the source list for `OC(CNC(=S)NCCc1ccccc1)COc1ccc(C(F)(F)F)cc1` (centres unmarked) [compound 3n, N-[2-hydroxy-3-(4-trifluoromethylphenoxy)propyl]-N′-2-phenethyl-thiourea]?
A: change in water intake: did not cause any significant change; change in gross behaviour: did not cause any significant change; decrease in food intake as compared to food intake in the control group: 28.4%
